Experimental data from patent US11767320B2, “Bicyclic dione compounds as inhibitors of KRAS” (INCYTE CORPORATION, priority 2020, dated 2023).

Key:
KRAS G12C = KRAS G12C (Homo sapiens, UniProt P01116, G12C); assay: GDP-GTP exchange assay (fluorescence based guanine nucleotide exchange, bodipy-GDP for GppNHp, SOS1); assay type: biochemical; conditions: bodipy-loaded KRAS G12C, 2 hours pre-incubation with inhibitor, read-out: G12C_exchange (KRAS_G12C exchange assay IC50)
In short: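 Bodipy-GDP-loaded KRAS G12C (5-25 nM final) pre-incubated 2 h with inhibitor in Hepes pH 7.5, MgCl2 buffer, then exchange started with 500 uM GppNHp and 150 nM SOS1 for 2 h at ambient temperature. G12D and G12V used 2.5 nM protein, with 4 h and 3 h exchange respectively. Fluorescence read at 485/520 nm; IC50 from four-parameter logistic fit.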

[1] = system: MIA PaCa-2 (KRAS G12C) cells; assay: Cellular pERK HTRF assay; assay type: cell-based; conditions: Homo sapiens; MIA PaCa-2 cells, 4 hours, phospho-ERK 1/2 HTRF; read-out: G12C_pERK (KRAS_G12C pERK assay IC50)
Description: MIA PaCa-2 (KRAS G12C; ATCC® CRL-1420), A427 (KRAS G12D; ATCC® HTB53), HPAF-II (KRAS G12D; ATCC® CRL-1997) and NCI-H838 (KRAS WT; ATCC® CRL-5844) cells are purchased from ATCC and maintained in RPMI 1640 media supplemented with 10% FBS (Gibco/Life Technologies). The cells are plated at 5000 cells per well (8 uL) into Greiner 384-well low volume, flat-bottom, tissue culture treated white plates and incubated overnight at 37° C. 5% CO2. The next morning, test compound stock solutions are diluted in media at 3× the final concentration, and 4 uL are added to the cells. The plate is mixed by gentle rotation for 30 seconds (250 rpm) at room temperature. The cells are incubated with the KRAS G12C and G12D compounds for 4 hours or 2 hours respectively at 37° C., 5% CO2.
4 uL of 4× lysis buffer with blocking reagent (1:25) (Cisbio) are added to each well and plates are rotated gently (300 rpm) for 30 minutes at room temperature. 4 uL per well of Cisbio anti Phospho-ERK 1/2 d2 is mixed with anti Phospho-ERK 1/2 Cryptate (1:1) are added to each well, mixed by rotation and incubated overnight in the dark at room temperature. Plates are read on the Pherastar plate reader at 665 nm and 620 nm wavelengths. IC50 determination is performed by fitting the curve of inhibitor percent inhibition versus the log of the inhibitor concentration using the GraphPad Prism 7 software.

[2] = system: MIA PaCa-2 cells (KRAS G12C); assay: Whole blood pERK1/2 HTRF assay; assay type: cell-based; conditions: Homo sapiens, compound in whole blood, 4 hours, phospho-ERK 1/2 HTRF, read-out: G12C_WB_pERK assay IC50
Description: MIA PaCa-2 cells (KRAS G12C; ATCC® CRL-1420) and HPAF-II (KRAS G12D; ATCC® CRL-1997) are maintained in RPMI 1640 with 10% FBS (Gibco/Life Technologies). The cells are seeded into 96 well tissue culture plates (Corning #3596) at 25000 cells per well in 100 uL media and cultured for 2 days at 37° C. 5% CO2 so that they are approximately 80% confluent at the start of the assay. Whole Blood are added to the 1 uL dots of compounds (prepared in DMSO) in 96 well plates and mixed gently by pipetting up and down so that the concentration of the compound in blood is 1× of desired concentration. The media is aspirated from the cells and 50 uL per well of whole blood with G12C or G12D compound is added and incubated for 4 or 2 hours respectively at 37° C. 5% CO2. After dumping the blood, the plates are gently washed twice by adding PBS to the side of the wells and dumping the PBS from the plate onto a paper towel, tapping the plate to drain well. 50 ul/well of 1× lysis buffer #1 (Cisbio) with blocking reagent (1:25) (Cisbio) is then added and incubated at room temperature for 30 minutes with shaking (250 rpm). Following lysis, 16 uL of lysate is transferred into 384-well Greiner small volume white plate using an Assist Plus (Integra Biosciences, NH). 4 uL of 1:1 mixture of anti Phospho-ERK 1/2 d2 and anti Phospho-ERK 1/2 Cryptate (Cisbio) is added to the wells using the Assist Plus and incubated at room temperature overnight in the dark. Plates are read on the Pherastar plate reader at 665 nm and 620 nm wavelengths. IC50 determination is performed by fitting the curve of inhibitor percent inhibition versus the log of the inhibitor concentration using the GraphPad Prism 7 software.

Sequence of KRAS G12C (P01116 1-188 isoform P01116-2 G12C): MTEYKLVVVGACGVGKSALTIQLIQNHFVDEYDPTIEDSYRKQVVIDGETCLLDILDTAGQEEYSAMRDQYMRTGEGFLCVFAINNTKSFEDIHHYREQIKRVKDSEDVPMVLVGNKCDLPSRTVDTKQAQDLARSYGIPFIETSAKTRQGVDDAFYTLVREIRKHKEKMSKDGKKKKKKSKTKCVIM

[2H]C([2H])(n1c(=O)c(=O)n(-c2c(C)ccnc2C(C)C)c2nc(-c3cccc(Cl)c3Cl)c(Cl)cc21)C1(F)CN(C(=O)C=C)C1 [Example 51, 1-((1-acryloyl-3-fluoroazetidin-3-yl)methyl-d2)-7-chloro-6-(2,3-dichlorophenyl)-4-(2-isopropyl-4-methylpyridin-3-yl)-1,4-dihydropyrido[2,3-b]pyrazine-2,3-dione]
IC50 (KRAS G12C): ≤ 100 nM | IC50 [1]: ≤ 100 nM

C=CC(=O)N1CC(F)(Cn2c(=O)c(=O)n(-c3c(C)ccnc3C(C)C)c3nc(-c4c(O)cccc4Cl)c(Cl)cc32)C1 [Example 56, 1-((1-acryloyl-3-fluoroazetidin-3-yl)methyl)-7-chloro-6-(2-chloro-6-hydroxyphenyl)-4-(2-isopropyl-4-methylpyridin-3-yl)-1,4-dihydropyrido[2,3-b]pyrazine-2,3-dione]
IC50 (KRAS G12C): ≤ 100 nM | IC50 [1]: ≤ 100 nM | IC50 [2]: ≤ 100 nM

C=CC(=O)N1CC(F)(Cn2c(=O)c(=O)n(-c3c(C)ccnc3C(C)C)c3nc(-c4c(Cl)cccc4OC)c(Cl)cc32)C1 [Example 57, 1-((1-acryloyl-3-fluoroazetidin-3-yl)methyl)-7-chloro-6-(2-chloro-6-methoxyphenyl)-4-(2-isopropyl-4-methylpyridin-3-yl)-1,4-dihydropyrido[2,3-b]pyrazine-2,3-dione]
IC50 (KRAS G12C): ≤ 100 nM | IC50 [1]: ≤ 100 nM | IC50 [2]: ≤ 100 nM

C=CC(=O)N1CC(F)(Cn2c(=O)c(=O)n(-c3c(C)ccnc3C(C)C)c3nc(-c4c(C)cccc4OC)c(Cl)cc32)C1 [Example 58, 1-((1-acryloyl-3-fluoroazetidin-3-yl)methyl)-7-chloro-4-(2-isopropyl-4-methylpyridin-3-yl)-6-(2-methoxy-6-methylphenyl)-1,4-dihydropyrido[2,3-b]pyrazine-2,3-dione]
IC50 (KRAS G12C): ≤ 100 nM | IC50 [1]: ≤ 100 nM | IC50 [2]: 100 to 1000 nM

C=CC(=O)N1CC(F)(Cn2c(=O)c(=O)n(-c3c(C)ccnc3C(C)C)c3nc(-c4c(Cl)cccc4CO)c(Cl)cc32)C1 [Example 59, 1-((1-acryloyl-3-fluoroazetidin-3-yl)methyl)-7-chloro-6-(2-chloro-6-(hydroxymethyl)phenyl)-4-(2-isopropyl-4-methylpyridin-3-yl)-1,4-dihydropyrido[2,3-b]pyrazine-2,3-dione]
IC50 (KRAS G12C): ≤ 100 nM | IC50 [1]: ≤ 100 nM | IC50 [2]: 100 to 1000 nM

C=CC(=O)N1CC(F)(Cn2c(=O)c(=O)n(-c3c(C)ccnc3C(C)C)c3nc(-c4c(Cl)ccc5c4OCO5)c(Cl)cc32)C1 [Example 60, 1-((1-acryloyl-3-fluoroazetidin-3-yl)methyl)-7-chloro-6-(5-chlorobenzo[d][1,3]dioxol-4-yl)-4-(2-isopropyl-4-methylpyridin-3-yl)-1,4-dihydropyrido[2,3-b]pyrazine-2,3-dione]
IC50 (KRAS G12C): ≤ 100 nM | IC50 [1]: ≤ 100 nM | IC50 [2]: 100 to 1000 nM

C=CC(=O)N1CC(F)(Cn2c(=O)c(=O)n(-c3c(C(C)C)ccnc3C(C)C)c3nc(-c4c(O)cccc4Cl)c(Cl)cc32)C1 [Example 61, 1-((1-acryloyl-3-fluoroazetidin-3-yl)methyl)-7-chloro-6-(2-chloro-6-hydroxyphenyl)-4-(2,4-diisopropylpyridin-3-yl)-1,4-dihydropyrido[2,3-b]pyrazine-2,3-dione]
IC50 (KRAS G12C): ≤ 100 nM | IC50 [1]: ≤ 100 nM | IC50 [2]: ≤ 100 nM

C=CC(=O)N1CC(F)(Cn2c(=O)c(=O)n(-c3c(C(C)C)ccnc3C(C)C)c3nc(-c4c(Cl)cccc4OC)c(Cl)cc32)C1 [Example 62, 1-((1-acryloyl-3-fluoroazetidin-3-yl)methyl)-7-chloro-6-(2-chloro-6-methoxyphenyl)-4-(2,4-diisopropylpyridin-3-yl)-1,4-dihydropyrido[2,3-b]pyrazine-2,3-dione]
IC50 (KRAS G12C): ≤ 100 nM | IC50 [1]: ≤ 100 nM | IC50 [2]: ≤ 100 nM

C=CC(=O)N1CC(F)(Cn2c(=O)c(=O)n(-c3c(C(C)C)ccnc3C(C)C)c3nc(-c4c(C)cccc4OC)c(Cl)cc32)C1 [Example 63]
IC50 (KRAS G12C): ≤ 100 nM | IC50 [1]: ≤ 100 nM | IC50 [2]: ≤ 100 nM

C=C(F)C(=O)N1CC(F)(Cn2c(=O)c(=O)n(-c3c(C(C)C)ccnc3C(C)C)c3nc(-c4c(O)cccc4Cl)c(Cl)cc32)C1 [Example 64, 7-chloro-6-(2-chloro-6-hydroxyphenyl)-4-(2,4-diisopropylpyridin-3-yl)-1-((3-fluoro-1-(2-fluoroacryloyl)azetidin-3-yl)methyl)-1,4-dihydropyrido[2,3-b]pyrazine-2,3-dione]
IC50 (KRAS G12C): ≤ 100 nM | IC50 [1]: ≤ 100 nM | IC50 [2]: 100 to 1000 nM
